According to publication PMC12928571, “Idler Compounds: A Simple Protocol for Openly Sharing Fridge Contents for Cross-Screening” (Journal of Medicinal Chemistry, 2026):

How the values were obtained:
[1] = test system: E. coli (NCTC 12923) +PMBN; assay: Activity against E. coli in the presence of PMBN (30 μg/mL); type: cell-based, Escherichia coli; conditions: 100 μM, active when inhibition >80%
C. albicans (NCPF 3281) = assay: Activity against C. albicans, microbroth growth inhibition (OD530); type: cell-based, Candida albicans; conditions: 100 μM; active when inhibition >80%
[2] = Solubility by forward light-scatter (NEPHELOstar Plus); type: physicochemical; conditions: 1% DMSO in DPBS pH 7.1, 37 °C; for solubility (in words): 2 h
[3] = test system: SARS-CoV-2 nonstructural protein 12 (Nsp12); conditions: from originating SARS-CoV-2 Nsp12 project; cited from earlier work
Huh7 cells = conditions: reported after plate MHT-0001 was prepared, reference not printed at the place; cited from earlier work
DENV serotype 2 = conditions: from originating DENV RdRp project; reference not printed at the place; cited from earlier work
[4] = test system: A. baumannii (ATCC 17978) +PMBN; assay: Activity against A. baumannii in the presence of PMBN (30 μg/mL); type: cell-based, Acinetobacter baumannii; conditions: 100 μM, active when inhibition >80%
[5] = test system: chikungunya virus nsp2 helicase; conditions: from originating chikungunya virus nsp2 helicase project; cited from earlier work
S. aureus (ATCC 9144) = assay: Activity against S. aureus, microbroth growth inhibition (OD600); type: cell-based, Staphylococcus aureus; conditions: 100 μM; active when inhibition >80%
P. falciparum = conditions: from originating P. falciparum / Open Source Malaria projects; cited from earlier work
[6] = test system: Mycobacterium avium (ATCC15796); assay: Activity against Mycobacterium avium, luciferase reporter strain luminescence; conditions: 10 μM; active when inhibition >50%
[7] = test system: Mycobacterium abscessus (NCTC 14045); assay: Activity against Mycobacterium abscessus, luciferase reporter strain luminescence; conditions: 10 μM; active when inhibition >50%
Gram-negative strain = assay: Activity on a Gram-negative strain without PMBN (strain not given); type: cell-based; conditions: 100 μM, strain not named

Question: Which “activity on E. coli +PMBN (in words)” value [1] does the source give for O=S(=O)(Nc1ccc(Oc2ccccc2)cc1)c1cccc(C(F)(F)F)c1 [EC055-1] here?
Answer: The value was “narrow–spectrum activity”.

Question: With COc1cc2nc(Nc3cc(C)[nH]n3)nc(Nc3cc(C)[nH]n3)c2cc1OC [MA20] as the molecule, how does the “activity on C. albicans (in words)” value (C. albicans (NCPF 3281)) read?
Answer: Its value is “selective activity”.

Question: With CC1=CC(=O)C=C(C)C1=NOS(=O)(=O)c1ccc(Cl)cc1 [RA-0001351] as the molecule, how does the “solubility (in words)” value [2] read?
Answer: The value was “good solubility”.

Question: And the “potency on Nsp12 (in words)” value [3]?
Answer: The value was “potent”.

Question: For CC1(C)C2CCC1(C)C(OCC(O)CNC1CCCCC1)C2 (centres unmarked) [RA-0020564], which “activity on E. coli +PMBN (in words)” value ([1]; listed as well G6) is on record?
Answer: The value was “narrow–spectrum activity”.

Question: What about the solubility at 2 h ([2]; DPBS with 1% DMSO, aqueous buffer, kinetic from dmso stock) of the same molecule?
Answer: Its solubility at 2 h is over 100 µM.

Question: What about the CC50 (Huh7 cells) of the same molecule?
Answer: The CC50 was 14.5 µM.

Question: With Cc1ccc(C)c(N2CCN(C(=O)C3CCN(c4ncnc5c4sc4ncccc45)CC3)CC2)c1 [RA-0020572] as the molecule, how does the “antiviral activity on DENV serotype 2” value (DENV serotype 2) read?
Answer: The value was 2.7 µM.

Question: For COc1ccc(-c2ccc(CNc3ccnc(S(=O)(=O)F)c3)s2)cc1 [RA-0020649-01], which “activity on C. albicans (in words)” value (C. albicans (NCPF 3281)) is on record?
Answer: Its value is “selective activity”.

Question: Which “activity on A. baumannii +PMBN (in words)” value [4] does the source give for O=C(Nc1ccccc1)C(Cl)C(=O)c1ccccc1 (centres unmarked) [RA-0020661-01] here?
Answer: The value was “narrow–spectrum activity”.

Question: With Oc1ccc(CN2CCN(c3ccccc3F)CC2)c2cccnc12 [RA-0020681] as the molecule, how does the “activity on C. albicans (in words)” value (C. albicans (NCPF 3281)) read?
Answer: Its value is “selective activity”.

Question: What about the “solubility (in words)” value [2] of the same molecule?
Answer: Its value is “poor”.

Question: And the “unwinding or ATPase inhibitory effect (in words)” value [5]?
Answer: Its value is “no unwinding or ATPase inhibitory effect”.

Question: With COc1ccc2c(c1)nc(-c1c[nH]c3cc(N4CCOCC4)ccc13)c1[nH]ccc12 [WEL2.76] as the molecule, how does the “activity on S. aureus (in words)” value (S. aureus (ATCC 9144)) read?
Answer: Its value is “strong activity”.

Question: What about the “activity on A. baumannii +PMBN (in words)” value [4] of the same molecule?
Answer: The value was “strong activity”.

Question: And the “activity on E. coli +PMBN (in words)” value [1]?
Answer: The value was “strong activity”.

Question: What about the “activity on C. albicans (in words)” value (C. albicans (NCPF 3281)) of the same molecule?
Answer: Its value is “no noticeable effect”.

Question: What about the “solubility (in words)” value [2] of the same molecule?
Answer: The value was “poor”.

Question: And the “antiplasmodial activity / inhibition against P. falciparum (in words)” value (P. falciparum)?
Answer: The value was “promising antiplasmodial activity”.

Question: What about the “activity on M. avium (in words)” value [6] of the same molecule?
Answer: The value was “no noticeable effect”.

Question: And the “activity on M. abscessus (in words)” value [7]?
Answer: Its value is “no noticeable effect”.

Question: For COc1ccc2c(c1)nc(-c1c[nH]c3ccc(N4CCSCC4)cc13)c1[nH]ccc12 [WEL2.92a], which “activity on a Gram-negative strain (in words)” value (Gram-negative strain) is on record?
Answer: The value was “showed activity”.

Question: For CC(C)c1cc(Nc2nc(N[C@@H](CO)C3CCCCC3)nc3[nH]ncc23)n[nH]1 [WYH-9], which “activity on E. coli +PMBN (in words)” value [1] is on record?
Answer: Its value is “narrow–spectrum activity”.

Question: Which “activity on E. coli +PMBN (in words)” value [1] does the source give for Nc1ncnc2cc(-c3cccc(S(N)(=O)=O)c3)sc12 [YNW5-2] here?
Answer: Its value is “narrow–spectrum activity”.

Question: What about the “antiplasmodial activity / inhibition against P. falciparum (in words)” value (P. falciparum) of the same molecule?
Answer: Its value is “potent and selective inhibition”.

Question: And the “activity on M. avium (in words)” value [6]?
Answer: The value was “showed activity”.
